From patent publication US8420659B2, “Compositions and methods for inhibition of the JAK pathway” (Rigel Pharmaceuticals, Inc., priority 2008, dated 2013)

system: Human primary T-cells; assay: Cell Titer-Glo, Human primary T Cell, IL2 (proliferation); assay type: cell-based; details: IL-2 stimulated primary T-cell proliferation, 72 hours at 37° C., Cell Titer-Glo luminescence
Source text: The activity of the compounds described herein can further be characterized by assaying the effect of the 2,4-pyrimidinediamine compounds described herein on the proliferative response of primary human T-cells. In this assay, primary human. T-cells derived from peripheral blood and pre-activated through stimulation of the T-cell receptor and CD28, proliferate in culture in response to the cytokine Interleukin-2 (IL-2). This proliferative response is dependent on the activation of JAK1 and JAK3 tyrosine kinases, which phosphorylate and activate the transcription factor Stat-5. The primary human T-cells are incubated with the 2,4-pyrimidinediamine compounds in the presence of IL-2 for 72 hours, and at the assay endpoint intracellular ATP concentrations are measured to assess cell viability. A reduction in cell proliferation compared to control conditions is indicative of inhibition of the JAK kinase pathway.
Cell Titer-Glo, Human primary T Cell, IL2
Materials and Reagents: Dimethyl Sulfoxide (DMSO) (Sigma-Aldrich, Cat# D2650) was used as a control. The following reagents were used: Ficoll Hypaque (Amersham Pharmacia, Cat#17-1440-03), Anti-Human CD3 (BD Pharmingen, Cat#555336), Anti-Human CD28 (Immunotech, Cat# IM1376), Yssel's Media (Gemini Bio-products, Cat#400-103), RPMI 1640 (Cellgro, Cat#10-040-CM), Fetal Bovine Serum (JRH, Cat#12106-500M), and […] (R& D Systems, Cat#202-IL).
Human primary T-cells were isolated and cultured according to the following procedure. Whole blood was obtained from a healthy volunteer, mixed 1:1 with PBS, layered on to Ficoll Hypaque in 2:1 blood/PBS:ficoll ratio and centrifuged for 30 min at 4° C. at 1750 rpm. The lymphocytes at the serum: ficoll interface were recovered and washed twice with 5 volumes of PBS. The cells were resuspended in Yssel's medium containing 40 U/mL IL-2 and seeded into a flask pre-coated with […] anti-CD3 and […] anti-CD28. The primary T-cells were stimulated for 3-4 days, then transferred to a fresh flask and maintained in RPMI with 10% FBS and 40 U/mL IL-2.
Primary T-cells were starved of IL-2 overnight and resuspended in Yssel's medium at 2×10^6 cells/mL. 50 μL of cell suspension containing 80 U/mL IL-2 was added to each well of a flat bottom 96 well black plate. For the unstimulated control, IL-2 was omitted from the last column on the plate. Compound was serially diluted in DMSO from 5 mM in 3-fold dilutions, and then diluted 1:250 in Yssel's medium. 50 μL of 2× compound was added per well in duplicate and the cells were allowed to proliferate for 72 hours at 37° C.
Proliferation was measured using Cell Titer-Glo. The substrate was thawed and allowed to come to room temperature. After mixing the Cell Titer-Glo reagent and diluent together, 100 μL was added to each well. The plates were mixed on an orbital shaker for two minutes to induce lysis and incubated at room temperature for an additional ten minutes to allow the signal to equilibrate. The Luminescence was read on the Wallac Plate Reader (Wallac Victor2 1420 Multilabel Counter).

SMILES | IC50 [nM]
NS(=O)(=O)c1ccc(Nc2ncc(Cl)c(Nc3ccc(CNS(=O)(=O)NC4CC4)cc3)n2)cc1 [Compound I-19, N2-(4-Aminosulfonylphenyl)-5-chloro-N4-[4-[(N-cyclopropylsulfamoylamino)methyl]phenyl]-2,4-pyrimidinediamine] | < 500
CCNS(=O)(=O)NCc1cccc(Nc2nc(Nc3ccc(S(N)(=O)=O)cc3)ncc2C)c1 [Compound I-12, N2-(4-Aminosulfonylphenyl)-N4-[3-[(N-ethylsulfamoylamino)methyl]phenyl]-5-methyl-2,4-pyrimidinediamine] | < 500
CCNS(=O)(=O)NCc1cccc(Nc2nc(Nc3cccc(S(N)(=O)=O)c3)ncc2C)c1 [Compound I-11, N2-(3-Aminosulfonylphenyl)-N4-[3-[(N-ethylsulfamoylamino)methyl]phenyl]-5-methyl-2,4-pyrimidinediamine] | < 500
CCNS(=O)(=O)NCc1ccc(Nc2nc(Nc3ccc(S(N)(=O)=O)cc3)ncc2C)cc1 [Compound I-8, N2-(4-Aminosulfonylphenyl)-N4-[4-[(N-ethylsulfamoylamino)methyl]phenyl]-5-methyl-2,4-pyrimidinediamine] | < 500
CCNS(=O)(=O)NCc1ccc(Nc2nc(Nc3cccc(S(N)(=O)=O)c3)ncc2Cl)cc1 [Compound I-5, N2-(3-Aminosulfonylphenyl)-5-chloro-N4-[4-[(N-ethylsulfamoylamino)methyl]phenyl]-2,4-pyrimidinediamine] | < 500
CCNS(=O)(=O)NCc1cccc(Nc2nc(Nc3cccc(S(N)(=O)=O)c3)ncc2F)c1 [Compound I-13, N2-(3-Aminosulfonylphenyl)-N4-[3-[(N-ethylsulfamoylamino)methyl]phenyl]-5-fluoro-2,4-pyrimidinediamine] | < 500
CCNS(=O)(=O)NCc1ccc(Nc2nc(Nc3cccc(S(N)(=O)=O)c3)ncc2Cl)c(C)c1 [Compound I-15, N2-(3-Aminosulfonylphenyl)-5-chloro-N4-[4-[(N-ethylsulfamoylamino)methyl]-2-methylphenyl]-2,4-pyrimidinediamine] | < 500
CCNS(=O)(=O)NCc1cccc(Nc2nc(Nc3cccc(S(N)(=O)=O)c3)ncc2Cl)c1 [Compound I-9, N2-(3-Aminosulfonylphenyl)-5-chloro-N4-[3-[(N-ethylsulfamoylamino)methyl]phenyl]-2,4-pyrimidinediamine] | < 500
CCNS(=O)(=O)NCc1cccc(Nc2nc(Nc3ccc(S(N)(=O)=O)cc3)ncc2Cl)c1 [Compound I-10, N2-(4-Aminosulfonylphenyl)-5-chloro-N4-[3-[(N-ethylsulfamoylamino)methyl]phenyl]-2,4-pyrimidinediamine] | < 500
